Results on 31 compounds are retold here after patent EP4741379A1, “CLASS OF PROGRAMMED CELL DEATH INHIBITORS, PREPARATION METHOD THEREFOR AND USE THEREOF” (SHANGHAI INSTITUTE OF ORGANIC CHEMISTRY, CHINESE ACADEMY OF …, priority 2023, dated 2025).

The subject of experiment [1] is FADD-deficient Jurkat cells. Nature of the experiment: TNF-induced programmed necrosis of FADD-deficient Jurkat cells (Cell Titer-Glo viability). The settings on record: for EC50: Homo sapiens, Jurkat. Type of experiment: cell-based, human. On the procedure: (§1) The biological test protocol is adopted to test effects of the compound on TNF-induced programmed necrosis of FADD (Fas-associated death domain)-deficient Jurkat cells and L929 cells.
(§2) Two different stimulation methods were used: treating with tumor necrosis factor (TNFα) alone, or treating with TNFα in combination of mitochondrial-derived cysteine-aspartate activator (SMAC) SM164. Cell viability was determined by measuring chemiluminescence values, thereby assessing the bioactivity of the compounds in inhibiting programmed cell necrosis.
(§3) Method: FADD-deficient Jurkat cells: FADD-deficient Jurkat cells (human peripheral blood leukemia T cell line) were cultured in vitro. After reaching logarithmic growth phase, cells were collected and centrifuged at 1000 rpm for 5 minutes. A supernatant was discarded. A cell concentration was adjusted to 2.5×10^5/mL, and cells were seeded into a 384-well plate at 40 µL per well. In the corresponding wells, 5 µL of SM164 (50 nM) and compounds diluted with cell culture medium were added. After pre-treatment at 37°C for 1 hour, 5 µL of TNFα (50 ng/mL) diluted with cell culture medium was added to each well as a stimulation group, while 5 µL of culture medium was added as a control group. After the plate was incubated in a cell culture incubator (37°C, 5% CO2) for 14 hours, 15 µL of Cell Titer-Glo solution was added to each well. Then, the plate was incubated at room temperature for 30 minutes. Luminescence was measured to assess intracellular ATP levels. Cell viability was set at 100% for unstimulated DMSO control wells. […] The plate was placed in a cell culture incubator (37°C, 5% CO2) and cultured for 12 hours. In the corresponding wells, 5 µL of SM164 (500 nM) and compounds diluted with cell culture medium were added. After pre-treatment at 37°C for 1 hour, 5 µL of TNFα (500 ng/mL) diluted with cell culture medium was added to the wells as a stimulation group, while 5 µL of culture medium was added as a control group. After the plate was incubated in the cell incubator (37°C, 5% CO2) for 14 hours, 15 µL of Cell Titer-Glo solution was added to each well. Then, the plate was incubated at room temperature for 30 minutes, and luminescence was measured to assess intracellular ATP levels. Cell viability was set at 100% for unstimulated DMSO control wells. EC50 values of the compounds were calculated using Prism GraphPad statistical software.
On the technique in general: In ATP-based viability assays light output follows the ATP content of the culture.

Experiment [2] concerns L929 cells. The experiment in a line: TNF-induced programmed necrosis of L929 cells (Cell Titer-Glo viability). The class given is cell-based, mouse. Particulars: Mus musculus. On the procedure: as §1, §2, §3
Where [3] appears, read: stimulation with TNFα + SM164, read-out: EC50 (nM) FADD^-/- Jurkat cells (human-derived) TNFα+ SM164.
The mark [4] stands for this setting: stimulation with TNFα alone, read-out: EC50 (nM) FADD^-/- Jurkat cells (human-derived) TNFα.
Where [5] appears, read: L929, stimulation with TNFα + SM164, read-out: EC50 (nM) L929 cells (mouse-derived) TNFα+ SM164.
Setting [6] is: L929, stimulation with TNFα alone, read-out: EC50 (nM) L929 cells (mouse-derived) TNFα.
Where [7] appears, read: read-out: EC50 (nM) FADD^-/- Jurkat cells (human-derived) TNFα.
Where [8] appears, read: L929, read-out: EC50 (nM) L929 cells (mouse-derived) TNFα.

Read-outs that look alike come from different tables or passages of the source. Where only a bound is given, the exact number is not on record here.

Take `C[C@H](NC(=O)c1nnn(C)c1Cc1cccc(C#N)c1)c1ccc(C#Cc2ccccn2)cc1` [IRCBC-072]: the EC50 was determined as 2.73 nM in experiment [1] (setting [3]), 0.049 nM in experiment [1] (setting [4]), 17.3 nM in experiment [2] (setting [5]) and 1.79 nM in experiment [2] (setting [6]).
For `C[C@H](NC(=O)c1nnn(C)c1Cc1ccccc1)c1ccc(C#Cc2c(F)cncc2F)cc1` [IRCBC-091] the same measures were 0.145 nM, 0.004 nM, 1.29 nM and 0.455 nM.
`C[C@H](NC(=O)c1nnn(C)c1Cc1ccccc1)c1ccc(C#Cc2ccncc2Cl)cc1` [IRCBC-093]: the EC50 in experiment [1] (setting [7]) is 0.001 nM; in experiment [2] (setting [8]), 0.374 nM.
For the compound `C[C@H](NC(=O)c1nnn(C)c1Cc1ccccc1)c1ccc(C#Cc2ccncc2C#N)cc1` [IRCBC-094], the EC50 came to 0.304 nM in experiment [1] (setting [3]), 0.001 nM in experiment [1] (setting [4]), 2.16 nM in experiment [2] (setting [5]) and 0.403 nM in experiment [2] (setting [6]).
As for `COc1cnc(C#Cc2ccc([C@H](C)NC(=O)c3nnn(C)c3Cc3ccccc3)cc2)nc1` [IRCBC-095], the EC50 in experiment [1] (setting [3]) stood at 0.002 nM; in experiment [2] (setting [5]) it was 0.052 nM; in experiment [2] (setting [6]), 0.01 nM.
On to `C[C@H](NC(=O)c1nnn(C)c1Cc1ccccc1)c1ccc(C#Cc2ccc(C(F)(F)F)cn2)cc1` [IRCBC-096], for which the EC50 was 0.406 nM in experiment [1] (setting [3]); 0.006 nM in experiment [1] (setting [4]); above 1000 nM in experiment [2] (L929, stimulation with TNFα + SM164, µM, read-out: EC50 L929 cells (mouse-derived) TNFα+ SM164); above 1000 nM in experiment [2] (L929, stimulation with TNFα alone, µM, read-out: EC50 L929 cells (mouse-derived) TNFα).
Turning to `C[C@H](NC(=O)c1nnn(C)c1Cc1ccccc1)c1ccc(C#Cc2cnc(N(C)C)cn2)cc1` [IRCBC-098], the EC50 is 0.004 nM in experiment [1] (setting [3]), 0.062 nM in experiment [2] (setting [5]) and 0.011 nM in experiment [2] (setting [6]).
Consider `C[C@H](NC(=O)c1nnn(C)c1Cc1ccccc1)c1ccc(C#Cc2cccc(N(C)C)n2)cc1` [IRCBC-099], for which the EC50 is 3.46 nM in experiment [1] (setting [3]), 0.195 nM in experiment [1] (setting [4]), 0.734 nM in experiment [2] (setting [5]) and 0.399 nM in experiment [2] (setting [6]).
For `C[C@H](NC(=O)c1nnn(C)c1Cc1ccccc1)c1ccc(C#Cc2ccnc(N(C)C)n2)cc1` [IRCBC-100] the same measures were 1.79 nM, 0.084 nM, 1.21 nM and 0.561 nM.
With `C[C@H](NC(=O)c1nnn(C)c1Cc1ccccc1)c1ccc(C#Cc2ccnc(N(C)C)c2)cc1` [IRCBC-101], the EC50 in experiment [1] (setting [3]) was determined as 0.582 nM; in experiment [1] (setting [4]) it was 0.036 nM; in experiment [2] (setting [5]), 2.1 nM; in experiment [2] (setting [6]), 0.405 nM.
As for `C[C@H](NC(=O)c1nnn(C)c1Cc1ccccc1)c1ccc(C#Cc2ccc(N3CCC3)cn2)cc1` [IRCBC-103], the EC50 in experiment [1] (setting [3]) is 0.001 nM; in experiment [2] (setting [5]), 0.104 nM; in experiment [2] (setting [6]), 0.044 nM.
`C[C@H](NC(=O)c1nnn(C)c1Cc1ccccc1)c1ccc(C#Cc2ccc(N3CCCC3)cn2)cc1` [IRCBC-104]: the EC50 in experiment [1] (setting [3]) came out at 0.002 nM; in experiment [2] (setting [5]), 0.12 nM; in experiment [2] (setting [6]), 0.071 nM.
On to `C[C@H](NC(=O)c1nnn(C)c1Cc1ccccc1)c1ccc(C#Cc2csc(N(C)C)n2)cc1` [IRCBC-106], for which the EC50 in experiment [1] (setting [3]) turned out to be 0.256 nM; in experiment [1] (setting [4]), 0.004 nM; in experiment [2] (setting [5]) it was 0.3 nM; in experiment [2] (setting [6]), 0.139 nM.
The corresponding values for `C[C@H](NC(=O)c1nnn(C)c1Cc1ccccc1)c1ccc(C#Cc2cnc(N(C)C)nc2)cc1` [IRCBC-119] are 5.79 nM, 0.164 nM, 70.9 nM and 20.9 nM.
Regarding `C[C@H](NC(=O)c1nnn(C)c1Cc1ccccc1)c1ccc(C#Cc2ccc(C(C)(C)O)cn2)cc1` [IRCBC-120], the EC50 was found to be 0.079 nM in experiment [1] (setting [3]), 0.002 nM in experiment [1] (setting [4]), 1.74 nM in experiment [2] (setting [5]) and 0.438 nM in experiment [2] (setting [6]).
In the case of `C[C@H](NC(=O)c1nnn(C)c1Cc1ccccc1)c1ccc(C#Cc2ncccc2C#N)cc1` [IRCBC-121], the EC50 in experiment [1] (setting [3]) came to 0.01 nM; in experiment [2] (setting [5]), 0.069 nM; in experiment [2] (setting [6]), 0.012 nM.
The corresponding values for `C[C@H](NC(=O)c1nnn(C)c1Cc1ccccc1)c1ccc(C#Cc2ncccc2F)cc1` [IRCBC-122] are 0.035 nM, 0.032 nM and 0.026 nM.
The corresponding values for `COc1cccnc1C#Cc1ccc([C@H](C)NC(=O)c2nnn(C)c2Cc2ccccc2)cc1` [IRCBC-123] are 0.004 nM, 1.05 nM and 0.246 nM.
`C[C@H](NC(=O)c1nnn(C)c1Cc1ccccc1)c1ccc(C#Cc2ncccc2N(C)C)cc1` [IRCBC-124]: the EC50 in experiment [1] (setting [3]) stood at 0.034 nM; in experiment [2] (setting [5]), 5.87 nM; in experiment [2] (setting [6]), 1.93 nM.
Consider `C[C@H](NC(=O)c1nnn(C)c1Cc1ccccc1)c1ccc(C#Cc2cc(N(C)C)ccn2)cc1` [IRCBC-125], for which the EC50 in experiment [1] (setting [3]) came out at 0.145 nM; in experiment [1] (setting [4]), 0.01 nM; in experiment [2] (setting [5]) it was 1.68 nM; in experiment [2] (setting [6]) it was 0.445 nM.
For `C[C@H](NC(=O)c1nnn(C)c1Cc1ccccc1)c1ccc(C#Cc2cnc3cccnn23)cc1` [IRCBC-131] the same measures were 0.16 nM, 0.003 nM, 8.75 nM and 2.05 nM.
`CCN1CCN(c2ccc(C#Cc3ccc([C@H](C)NC(=O)c4nnn(C)c4Cc4ccccc4)cc3)nc2)CC1` [IRCBC-134]: the values for the EC50 in experiment [1] (setting [3]), in experiment [2] (setting [5]) and in experiment [2] (setting [6]) were 0.002 nM, 0.005 nM and 0.001 nM, respectively.
The corresponding values for `CNc1cnc(C#Cc2ccc([C@H](C)NC(=O)c3nnn(C)c3Cc3ccccc3)cc2)cn1` [IRCBC-145] are 0.007 nM, 0.127 nM and 0.063 nM.
For `CC(=O)Nc1ccc(C#Cc2ccc([C@H](C)NC(=O)c3nnn(C)c3Cc3ccccc3)cc2)nc1` [IRCBC-149] the same measures were 0.003 nM, 0.066 nM and 0.045 nM.
The corresponding values for `CC(C)N1CCN(c2ccc(C#Cc3ccc([C@H](C)NC(=O)c4nnn(C)c4Cc4ccccc4)cc3)nc2)CC1` [IRCBC-159] are 0.002 nM, 0.006 nM and 0.003 nM.
Take `C[C@H](NC(=O)c1nnn(C)c1Cc1ccccc1)c1ccc(C#Cc2ncc(NC3CC3)cn2)cc1` [IRCBC-271]: the EC50 in experiment [1] (setting [3]) is 0.0111 nM; in experiment [2] (setting [5]) it was 0.00618 nM.
As for `CN1C(=O)N[C@H](Cc2c[nH]c3c(Cl)cccc23)C1=O` [Nec-1s, reference compound], the EC50 amounted to 228 nM in experiment [1] (setting [7]) and 443 nM in experiment [2] (setting [8]).
`C[C@H](NC(=O)c1nnn(C)c1Cc1ccccc1)c1ccc(C#Cc2cccnc2)cc1` [QY-18-25]: the EC50 was 0.02 nM in experiment [1] (setting [3]), below 0.01 nM in experiment [1] (setting [4]), 1.2 nM in experiment [2] (setting [5]) and 0.3 nM in experiment [2] (setting [6]).
As for `C[C@H](NC(=O)c1nnn(C)c1Cc1ccccc1)c1ccc(C#Cc2ccncc2)cc1` [QY-18-27], the EC50 in experiment [1] (setting [3]) is 0.01 nM; in experiment [1] (setting [4]), below 0.01 nM; in experiment [2] (setting [5]) it was 0.06 nM; in experiment [2] (setting [6]), 0.04 nM. Moreover, the “programmed necroptosis inhibitory activity compared to SAR443122” value in experiment [1] (TNFα alone or TNFα + SM164, human derived FADD-deficient Jurkat cells) was “stronger”.
Regarding `C[C@H](NC(=O)c1nnn(C)c1Cc1ccccc1)c1ccc(C#Cc2cnn(C)c2)cc1` [QY-18-43], the EC50 was determined as 0.06 nM in experiment [1] (setting [3]), 0.02 nM in experiment [1] (setting [4]), 0.08 nM in experiment [2] (setting [5]) and 0.05 nM in experiment [2] (setting [6]).
For `C[C@H](NC(=O)c1nnn(C)c1Cc1ccccc1)c1ccc(C#CC2CCOCC2)cc1` [QY-18-44] the same measures were 0.3 nM, 0.04 nM, 0.3 nM and 0.2 nM.
